{
  "source": "paper PMC12817894",
  "about": "“Two solutions for efficient light-harvesting in phototrophic Gemmatimonadota” (mSystems, 2025)",
  "target": "T1, RC (reaction center) of the RC-dLH complex, L and M subunits (Gemmatimonas groenlandica, UniProt A0A6M4ILR2+A0A6M4IPC7)",
  "T1 construct": "gene HKW67_08800; native reaction center within the RC-dLH complex purified from Gem. groenlandica cells, DDM-solubilized; RC-U not detected; with Photosynthetic reaction center cytochrome c subunit; Photosynthetic reaction center H subunit, transmembrane part; Photosynthetic reaction center H subunit, cytoplasmic part; Reaction center subunit S",
  "T1 sequence (A0A6M4IPC7 1-274)": "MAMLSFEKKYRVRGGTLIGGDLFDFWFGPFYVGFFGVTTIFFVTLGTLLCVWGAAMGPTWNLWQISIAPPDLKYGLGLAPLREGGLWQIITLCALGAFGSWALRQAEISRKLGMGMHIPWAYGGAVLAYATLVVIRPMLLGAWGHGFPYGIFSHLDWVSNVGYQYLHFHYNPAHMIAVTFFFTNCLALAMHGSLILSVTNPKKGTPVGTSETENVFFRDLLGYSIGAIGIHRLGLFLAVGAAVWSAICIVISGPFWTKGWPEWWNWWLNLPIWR",
  "T1 sequence (A0A6M4ILR2 1-392)": "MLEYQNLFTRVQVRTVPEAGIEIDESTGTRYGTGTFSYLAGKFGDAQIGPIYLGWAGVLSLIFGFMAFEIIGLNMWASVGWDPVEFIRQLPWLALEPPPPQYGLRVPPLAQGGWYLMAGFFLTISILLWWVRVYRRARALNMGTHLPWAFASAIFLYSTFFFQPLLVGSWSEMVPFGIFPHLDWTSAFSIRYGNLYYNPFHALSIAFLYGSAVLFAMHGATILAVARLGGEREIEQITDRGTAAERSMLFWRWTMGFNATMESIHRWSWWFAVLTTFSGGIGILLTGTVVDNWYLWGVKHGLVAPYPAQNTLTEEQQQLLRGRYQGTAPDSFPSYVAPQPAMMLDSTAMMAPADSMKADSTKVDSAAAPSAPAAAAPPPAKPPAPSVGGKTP",
  "experiment": "cryo-EM structure ([…] Å)",
  "type": "binding",
  "conditions": "modeled ligand; placement in RC L/M from known biology",
  "data": [
    {"smiles": "CC[C@H]1c2cc3[nH]c4c(c3C)C(=O)[C@H](C(=O)OC)c4c3nc(cc4[nH]c(cc(n2)[C@@H]1C)c(C(C)=O)c4C)[C@@H](C)[C@@H]3CCC(=O)OC/C=C(\\C)CCC[C@H](C)CCC[C@H](C)CCCC(C)C", "note": "[bacteriopheophytin]", "values": [
      {"measurement": "cryo-EM structure (2.3 Å)", "result": "bacteriochlorophyll, bacteriopheophytin, gemmatoxanthin, dodecyl-maltoside, phosphoethanolamine, heme, water, cardiolipin, menaquinone, and spirilloxanthin"}
    ]}
  ]
}
